Test results reported in patent US20230039836A1, “AROMATIC SULPHONAMIDES DERIVATIVES THAT INHIBITS PDI A3, THEIR SYNTHESIS AND USE” (Uniwersytet Jagiellonski, priority 2020, published 2023).
In brackets after ≈: the same amount, converted by molar mass. Read-outs that look alike come from different tables or passages of the source.

Experiments:
PDI A1 = biological target: T1, PDI A1 (Homo sapiens, UniProt P07237); assay: Insulin turbidometric assay, inhibition of PDI A1; assay type: biochemical; conditions: insulin reduction, turbidity at 650 nm, 60 min incubation at 37° C.; read-out: Inhibition of PDI A1 (EC 50)
T1 construct: purchased Mybiosource; host or cells: E. coli
In short: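 E. coli-expressed recombinant PDIA1 (10 ug/ml) preincubated with compound 60 min at 37 °C in phosphate buffer pH 7.6, 1 mM EDTA, DTT. Reaction started with insulin (0.15 mM final) and DTT (0.174 mM final). Insulin-reduction turbidity recorded at 650 nm over 120 s against PDI-free reference.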

Caco-2 [1] = assay: Cell cycle and cell death analysis; assay type: cell-based; conditions: FIG. 1C
Description: Cell cycle and cell death analysis has been performed as previously described (Milczarek M et al. , 2015). Compounds were tested 5 times independently. Obtained results were analyzed using BD FACSDiva 6.2 software.

MDA-MB-231 = assay: MTT antiproliferative assay, 72 h, with or without estradiol; assay type: cell-based, human; conditions: Homo sapiens, MDA-MB-231, 72 hours exposition, MTT
Description: (§1) Anticancer activity of PDI A1-inhibitors has been also tested in vitro in antiproliferative essay in normoxic and hypoxic conditions as well in estrogen-stimulated cancer cells. In the experiment, cells were seeded on 96-well plates (Sarstedt, Germany) in appropriate culture medium at a density of 10^5 cells/mL 24 h before adding the tested compounds. Cells were treated with each compound in four concentrations in the range 0.1-100 ug/mL. […] After 72 h of compound treatment at 37° C., 5 % CO2 humid atmosphere and in wo different oxygen level conditions: 21% - normal and <1% - hypoxia. In some experiments, the MDA-MB-231 and MCF-7 cells were seeded with or without 200 nM estradiol and after 24 h the tested compounds were added. A previously described sulforhodamine B antiproliferative assay was used with minor modifications (Skehan P et al., 1990). Briefly, cells were fixed with 50 µL/well of 50% (w/v) trichloroacetic acid (Avantor Performance Materials, Gliwice, Poland). After 1 h incubation, plates were washed several times with tap water and 50 µL of 0.4% (w/v) solution of sulforhodamine B (Sigma-Aldrich, Germany) in 1% (v/v) acetic acid (Avantor Performance Materials, Gliwice, Poland) was added to each well. After 30 min incubation at room temperature, unbound dye was washed out with 1% (v/v) acetic acid, whereas bound dye was solubilized with 10 mM unbuffered TRIS (Avantor Performance Materials, Gliwice, Poland) solution. The entire procedure was performed using a BioTek EL-406 washing station (BioTek Instruments, USA). After additional 30 min, absorbance was read using a Biotek Hybrid H4 reader (BioTek Instruments, USA) at 540 nm wavelength. MTT assay was used alternatively for HL-60 cell line and in the experiment in which estrogens are added (specified in the table legend). Absorbance was measured using a Biotek Hybrid H4 reader at 570 nm wavelength for MTT assay.
(§2) Compounds at each concentration were tested in triplicate in a single experiment and each experiment was repeated at least three times independently.
(§3) Results of in vitro antiproliferative effects are shown in Table 3 and Table 4 and are presented as mean IC50 ± SD calculated using the Prolab-3 system based on Cheburator 0.4 software.
(§4) Statistical analysis: Unpaired t test. *p<0.05 as compared to appropriate cells not pretreated with estradiol. MTT assay was used for antiproliferative activity assessment.

MCF-7 = assay: as above; assay type: cell-based, human; conditions: 72 hours exposition; for IC50: Homo sapiens, MCF7, MTT
Description: as §1, §2, §3, §4

Caco-2 [2] = assay: Sulforhodamine B antiproliferative assay, 72 h; assay type: cell-based, human; conditions: Homo sapiens, Caco-2; normal (21% of oxygen), 72-hour exposition
Description: In the experiment, cells were seeded on 96-well plates (Sarstedt, Germany) in appropriate culture medium at a density of 10^5 cells/mL 24 h before adding the tested compounds. Cells were treated with each compound in four concentrations in the range 0.1-100 ug/mL. […] Briefly, cells were fixed with 50 µL/well of 50% (w/v) trichloroacetic acid (Avantor Performance Materials, Gliwice, Poland). After 1 h incubation, plates were washed several times with tap water and 50 µL of 0.4% (w/v) solution of sulforhodamine B (Sigma-Aldrich, Germany) in 1% (v/v) acetic acid (Avantor Performance Materials, Gliwice, Poland) was added to each well. After 30 min incubation at room temperature, unbound dye was washed out with 1% (v/v) acetic acid, whereas bound dye was solubilized with 10 mM unbuffered TRIS (Avantor Performance Materials, Gliwice, Poland) solution. […] After additional 30 min, absorbance was read using a Biotek Hybrid H4 reader (BioTek Instruments, USA) at 540 nm wavelength.

HT-29 = assay: Caspase-3/7 activity assay; assay type: cell-based, human; conditions: after 24 and 48 h of incubation; compared to control
Description: (§5) Caspase-3/7 activity assay has been performed as previously described (Milczarek M et al., 2015) after 24 and 48 h of incubation with disclosed compounds. Compounds were tested in triplicate in a single experiment and each experiment was repeated three times independently. Results were normalized to the protein content using the SRB method and reported as mean relative caspase-3/7 activity compared to the control sample ± SD.

Caco-2 [3] = assay: Caspase-3/7 activity assay; assay type: cell-based, human; conditions: after 48 h treatment; compared to control
Description: as §5

T1 sequence (P07237 18-508, species assumed): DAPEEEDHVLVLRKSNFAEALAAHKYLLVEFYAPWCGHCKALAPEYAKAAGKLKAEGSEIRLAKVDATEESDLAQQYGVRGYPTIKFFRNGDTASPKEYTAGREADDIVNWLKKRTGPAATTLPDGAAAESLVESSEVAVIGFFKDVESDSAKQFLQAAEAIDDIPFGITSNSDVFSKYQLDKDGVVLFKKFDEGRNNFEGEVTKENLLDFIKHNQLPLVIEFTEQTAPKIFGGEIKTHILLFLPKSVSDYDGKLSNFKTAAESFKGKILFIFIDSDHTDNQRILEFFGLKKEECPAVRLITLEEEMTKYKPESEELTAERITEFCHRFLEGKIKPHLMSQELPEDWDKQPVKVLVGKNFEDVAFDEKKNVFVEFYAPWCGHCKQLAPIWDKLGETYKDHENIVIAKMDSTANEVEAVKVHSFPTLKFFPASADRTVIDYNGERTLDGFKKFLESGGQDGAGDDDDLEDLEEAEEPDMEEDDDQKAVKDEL

SMILES: COC(=O)C1CN1S(=O)(=O)c1ccccc1 (stereo not shown) [Compound C-3251, Methyl 1-(benzenesulfonyl)aziridine-2-carboxylate]
- EC50 (PDI A1): 6 µM
- Cell cycle distribution, CaCo-2 (Caco-2 [1]): increased the percentage of CaCo-2 cells in S cell cycle phase
- IC50 (MDA-MB-231; 200 nM estradiol, read-out: IC50 [µg/ml] MDA-MB-231 + estradiol): 29.7 ± 1.9 µg/mL
- IC50 (MDA-MB-231; not pretreated with estradiol, read-out: IC50 [µg/ml] MDA-MB-231 normal): 26.6 ± 2.3 µg/mL (≈ 110 µM)
- Selectivity index (SI): IC50 of MCF-10A/ IC50 of MCF-7 (MCF-7): 6.62
- IC50 (MCF-7; 200 nM estradiol, read-out: IC50 [µg/ml] MCF-7 + estradiol): 4 ± 0.2 µg/mL
- IC50 (MCF-7; not pretreated with estradiol, read-out: IC50 [µg/ml] MCF-7 normal): 3.9 ± 0.5 µg/mL (≈ 16.2 µM)
- IC50 (Caco-2 [2]): 3.4 ± 0.2 µg/mL (≈ 14.1 µM)
- Caspase 3/7 activity, HT-29 (HT-29): significantly increase caspase 3/7 activity
- Caspase 3/7 activity, Caco-2 (Caco-2 [3]): significantly increase caspase 3/7 activity
